Patent publication US8686050B2, “Diglycidic ether derivative therapeutics and methods for their use” (British Columbia Cancer Agency Branch, priority 2008, dated 2014)
Entries after “also recorded” stand apart in the source; their conditions may differ. Where a name gives a salt, the structure may show the parent alone.

Tests used:
[1] = molecular target: T1, VP16-ARTAD and Gal4-ARLBD (Homo sapiens, UniProt P10275); assay: N/C interaction, mammalian two-hybrid in CV1 cells; format: cell-based; conditions: R1881, 24 hr, 185-9-2 10 μg/ml, bicalutamide 10 μM
T1 construct: amino acids 1-565 of the AR NTD fused to VP16 at the N-terminus; the LBD of the AR (amino acids 628-919; Gal4-ARLBD; the C terminus); expressed in transfected cells; host or cells: CV1
T1 sequence (P10275 1-565): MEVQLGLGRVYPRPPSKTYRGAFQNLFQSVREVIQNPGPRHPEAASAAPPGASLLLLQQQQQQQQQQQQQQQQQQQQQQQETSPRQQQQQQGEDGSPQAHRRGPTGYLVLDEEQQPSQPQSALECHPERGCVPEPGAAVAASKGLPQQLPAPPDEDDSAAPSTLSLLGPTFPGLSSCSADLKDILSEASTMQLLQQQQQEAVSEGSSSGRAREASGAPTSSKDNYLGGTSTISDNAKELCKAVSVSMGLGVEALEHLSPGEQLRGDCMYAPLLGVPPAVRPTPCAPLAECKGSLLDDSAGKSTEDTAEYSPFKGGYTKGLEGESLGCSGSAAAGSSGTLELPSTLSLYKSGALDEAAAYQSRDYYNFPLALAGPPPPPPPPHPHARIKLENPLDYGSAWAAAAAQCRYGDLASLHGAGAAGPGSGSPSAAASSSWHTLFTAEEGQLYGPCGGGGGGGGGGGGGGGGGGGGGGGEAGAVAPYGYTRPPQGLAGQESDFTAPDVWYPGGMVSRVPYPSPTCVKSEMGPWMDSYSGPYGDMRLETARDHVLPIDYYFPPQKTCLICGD

[2] = molecular target: T2, AR interaction with the ARE on the PSA enhancer (Homo sapiens, UniProt P10275, T878A); assay: ChIP of AR on the PSA enhancer ARE in LNCaP cells; format: cell-based; conditions: DHT 3 h or 16 h, 185-9-2 10 μg/ml
T2 construct: LNCaP cells express endogenous AR and secrete prostate-specific antigen (PSA); endogenous in cells; host or cells: LNCaP
T2 sequence (P10275 1-920 T878A): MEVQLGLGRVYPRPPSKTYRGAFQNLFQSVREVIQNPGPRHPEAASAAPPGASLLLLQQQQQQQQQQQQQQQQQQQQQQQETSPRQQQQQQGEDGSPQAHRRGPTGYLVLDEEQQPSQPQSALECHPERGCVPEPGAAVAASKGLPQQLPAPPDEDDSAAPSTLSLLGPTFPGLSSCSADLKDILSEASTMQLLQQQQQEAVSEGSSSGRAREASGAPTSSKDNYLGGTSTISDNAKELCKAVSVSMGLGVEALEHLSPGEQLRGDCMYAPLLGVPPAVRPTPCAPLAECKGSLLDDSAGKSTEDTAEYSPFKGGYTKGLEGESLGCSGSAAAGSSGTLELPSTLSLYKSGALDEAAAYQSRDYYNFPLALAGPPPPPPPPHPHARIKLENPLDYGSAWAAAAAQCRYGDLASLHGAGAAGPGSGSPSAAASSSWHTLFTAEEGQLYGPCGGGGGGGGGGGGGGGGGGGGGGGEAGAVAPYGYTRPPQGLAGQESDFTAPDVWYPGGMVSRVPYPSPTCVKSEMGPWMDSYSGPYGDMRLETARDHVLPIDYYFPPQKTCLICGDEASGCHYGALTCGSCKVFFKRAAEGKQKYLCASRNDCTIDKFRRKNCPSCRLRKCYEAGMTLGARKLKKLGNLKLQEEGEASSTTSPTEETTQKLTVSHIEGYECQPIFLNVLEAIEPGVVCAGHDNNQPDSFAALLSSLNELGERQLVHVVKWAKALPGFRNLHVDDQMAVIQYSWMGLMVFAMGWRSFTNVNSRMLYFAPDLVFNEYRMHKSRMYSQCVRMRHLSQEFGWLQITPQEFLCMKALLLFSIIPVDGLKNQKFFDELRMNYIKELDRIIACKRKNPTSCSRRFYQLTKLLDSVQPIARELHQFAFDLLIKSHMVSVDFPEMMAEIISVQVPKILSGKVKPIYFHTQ

[3] = tested on: LNCaP xenografts; assay: LNCaP subcutaneous xenografts in castrated mice; format: in vivo, NOD-SCID male mice
Protocol: Six to eight-week old male athymic SCID mice were inoculated subcutaneously in the flank region via a 27-gauge needle with a 150 μl suspension of LNCaP or PC3 human prostate cancer cells (1×10^6 cells). The inoculations took place while the animal was under isofluorane anaesthesia. The tumor take rate is approximately 75%. Mice bearing tumors of 100 mm^3 were randomly assigned to treatment groups. Castration was performed as described below. Tumor volume (formula: L×W×H×0.5236) was measured in mice bearing LNCaP subcutaneous tumors that became palpable or visible and at least 40 mm^3. The animals were monitored daily and tumors were measured every 5 days.

CC(C)(c1ccc(OCC(O)CO)cc1)c1ccc(OCC(O)CCl)cc1 (centres unmarked) [185-9-2, BADGE.HCL.H2O]
androgen-stimulated N/C interaction [1]: inhibit androgen-stimulated N/C interaction
AR interaction with the ARE on the PSA enhancer in response to androgen (ChIP) [2]: inhibited AR interaction with the ARE
size of LNCaP xenograft tumors, intratumoral injection ([3]; castrated mice, I.T. every 5 days, 20 mg/kg body weight, 20 mg/kg): reduced the size of the tumors; also recorded: significantly reduce the tumors
size of LNCaP xenograft tumors, intravenous injection ([3]; castrated mice, I.V. 50 mg/kg body weight every other day): reduced the size of the tumors
LNCaP tumor volume at the duration (end) of the experiment, intratumoral ([3]; castrated mice, i.t. every 5 days, five doses): 35.4±15.7 mm^3
LNCaP tumor volume within 2 weeks of i.v. injection ([3]; castrated mice, i.v. 50 mg/kg every other day): 64.3±29.6 mm^3
apoptosis in xenografts (TUNEL) ([3]; intravenous delivery, IHC): increased apoptosis
proliferation in xenografts (Ki67) ([3]; intravenous delivery, IHC): reduced proliferation
